From ChEMBL document CHEMBL1139090, “Synthesis of potent and tissue-selective androgen receptor modulators (SARMs): 2-(2,2,2)-Trifluoroethyl-benzimidazole scaffold” (Bioorg Med Chem Lett, 2007)
pIC50: −log10 of the molar value. The source made the active and inactive calls. No cut-off for these calls is given here.

What was measured:
Rattus norvegicus [1] = experiment: Inhibition of prostate weight in immature Sprague-Dawley rat at 2 mg/day, sc relative to testosterone; format: functional, Prostate gland; conditions: for Activity: Prostate gland
Rattus norvegicus [2] = species on record: Rattus norvegicus; experiment: Stimulation of levator ani muscle weight in immature Sprague-Dawley rat at 2 mg/day relative to testosterone; format: functional
Rattus norvegicus [3] = species on record: Rattus norvegicus; experiment: Stimulation of levator ani muscle weight in immature Sprague-Dawley rat; format: functional
Rattus norvegicus [4] = species on record: Rattus norvegicus; experiment: Inhibition of prostate weight in immature Sprague-Dawley rat; format: functional, Prostate gland
Androgen receptor = molecular target: T1, Androgen receptor (Homo sapiens, UniProt P10275); experiment: Binding affinity at androgen receptor expressed in COS cells by whole cell binding assay; format: cell-based
T1 sequence (P10275 whole entry): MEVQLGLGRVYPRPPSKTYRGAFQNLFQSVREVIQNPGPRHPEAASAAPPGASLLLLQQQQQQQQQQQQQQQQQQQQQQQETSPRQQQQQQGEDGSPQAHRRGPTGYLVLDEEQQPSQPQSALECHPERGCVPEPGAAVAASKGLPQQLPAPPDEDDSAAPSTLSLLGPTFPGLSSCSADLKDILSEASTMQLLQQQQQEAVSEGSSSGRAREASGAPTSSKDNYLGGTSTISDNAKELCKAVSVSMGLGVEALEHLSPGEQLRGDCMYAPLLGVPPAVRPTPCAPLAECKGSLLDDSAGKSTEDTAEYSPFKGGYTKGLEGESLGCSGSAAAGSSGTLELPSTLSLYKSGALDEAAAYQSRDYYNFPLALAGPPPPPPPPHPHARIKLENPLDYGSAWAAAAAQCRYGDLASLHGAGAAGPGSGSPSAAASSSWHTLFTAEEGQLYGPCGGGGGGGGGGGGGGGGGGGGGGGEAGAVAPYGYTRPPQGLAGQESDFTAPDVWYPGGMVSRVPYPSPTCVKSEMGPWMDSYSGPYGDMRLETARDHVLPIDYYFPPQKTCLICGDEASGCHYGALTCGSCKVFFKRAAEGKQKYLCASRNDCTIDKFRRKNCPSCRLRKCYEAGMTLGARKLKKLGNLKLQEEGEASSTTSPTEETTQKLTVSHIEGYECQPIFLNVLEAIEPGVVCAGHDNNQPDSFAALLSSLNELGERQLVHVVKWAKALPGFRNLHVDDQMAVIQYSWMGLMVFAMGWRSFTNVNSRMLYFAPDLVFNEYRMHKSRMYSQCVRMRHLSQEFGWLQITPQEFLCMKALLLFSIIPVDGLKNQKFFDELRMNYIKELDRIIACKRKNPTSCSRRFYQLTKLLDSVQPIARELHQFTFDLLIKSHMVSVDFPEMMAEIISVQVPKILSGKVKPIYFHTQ

Rattus norvegicus [5] = species on record: Rattus norvegicus; experiment: Stimulation of levator ani muscle weight in mature Sprague-Dawley rat; format: functional
Rattus norvegicus [6] = species on record: Rattus norvegicus; experiment: Toxicity in immature Sprague-Dawley rat at 3 mg/day; format: organism-based; conditions: in vivo

| Compound | Inhibition (Rattus norvegicus [1]) [%] | Activity (Rattus norvegicus [2]) | further results |
| --- | --- | --- | --- |
| FC(F)(F)C1(c2nc3cc(Cl)c(Cl)cc3[nH]2)CCCN1 (stereo unspecified) | 35 | 4% | – |
| OC(c1ccccc1)(c1nc2cc(Cl)c(Cl)cc2[nH]1)C(F)(F)F (stereo unspecified) | 61 | inactive | – |
| C/C=C\C(O)(c1nc2cc(Cl)c(Cl)cc2[nH]1)C(F)(F)F (stereo unspecified) | 70 | 73% | ED50 (Rattus norvegicus [3]): 0.11 mg/day |
| FC(F)(F)C1(c2nc3cc(Cl)c(Cl)cc3[nH]2)CCCO1 (stereo unspecified) | 55 | 64% | – |
| C=C=CC(O)(c1nc2cc(Cl)c(Cl)cc2[nH]1)C(F)(F)F (stereo unspecified) | 85 | 99% | ED50 (Rattus norvegicus [3]): 0.075 mg/day |
| CCC(C)(C)C(O)(c1nc2cc(Cl)c(Cl)cc2[nH]1)C(F)(F)F (stereo unspecified) | 42 | 11% | – |
| C=CCC(O)(c1nc2cc(Cl)c(Cl)cc2[nH]1)C(F)(F)F (stereo unspecified) | 87 | 34% | ID50 (Rattus norvegicus [4]): 0.67 mg/day; ED50 (Rattus norvegicus [3]): 1.4 mg/day |
| CC(C)C(O)(c1nc2cc(Cl)c(Cl)cc2[nH]1)C(F)(F)F (stereo unspecified) | 33 | 87% | ED50 (Rattus norvegicus [3]): 0.05 mg/day; pIC50 (Androgen receptor): 8.70 |
| CC(C)=CC(O)(c1nc2cc(Cl)c(Cl)cc2[nH]1)C(F)(F)F (stereo unspecified) | 45 | 13% | – |
| CC(C)=C(C)C(O)(c1nc2cc(Cl)c(Cl)cc2[nH]1)C(F)(F)F (stereo unspecified) | 47 | inactive | – |
| C=CC(O)(c1nc2cc(Cl)c(Cl)cc2[nH]1)C(F)(F)F (stereo unspecified) | 56 | 82% | ED50 (Rattus norvegicus [5]): < 0.3 mg/kg; ED50 (Rattus norvegicus [3]): 0.04 mg/day; pIC50 (Androgen receptor): 8.15 |
| C=C=C(C)C(O)(c1nc2cc(Cl)c(Cl)cc2[nH]1)C(F)(F)F (stereo unspecified) | 78 | 15% | – |
| CCC(O)(c1nc2cc(Cl)c(Cl)cc2[nH]1)C(F)(F)F (stereo unspecified) | 25 | 106% | Activity (Rattus norvegicus [6]): Toxic |
| C#CCC(O)(c1nc2cc(Cl)c(Cl)cc2[nH]1)C(F)(F)F (stereo unspecified) | 68 | 71% | – |
| FC(F)(F)C1(c2nc3cc(Cl)c(Cl)cc3[nH]2)C=CCO1 (stereo unspecified) | – | 50% | Activity (Rattus norvegicus [1]): inactive |
| OC(Cc1ccc(F)cc1)(c1nc2cc(Cl)c(Cl)cc2[nH]1)C(F)(F)F (stereo unspecified) | 72 | inactive | – |
| C[C@](O)(CS(=O)(=O)c1ccc(F)cc1)C(=O)Nc1ccc(C#N)c(C(F)(F)F)c1 [(R)-BICALUTAMIDE] | 70 | inactive | – |
| OC(Cc1ccccc1)(c1nc2cc(Cl)c(Cl)cc2[nH]1)C(F)(F)F (stereo unspecified) | 86 | inactive | – |
| CCSCC(O)(c1nc2cc(Cl)c(Cl)cc2[nH]1)C(F)(F)F (stereo unspecified) | 31 | 96% | ED50 (Rattus norvegicus [3]): 0.1 mg/day; pIC50 (Androgen receptor): 7.77 |
| N#CCC(O)(c1nc2cc(Cl)c(Cl)cc2[nH]1)C(F)(F)F (stereo unspecified) | 9 | 126% | ED50 (Rattus norvegicus [3]): 0.03 mg/day |
| OC(CSCC(F)(F)F)(c1nc2cc(Cl)c(Cl)cc2[nH]1)C(F)(F)F (stereo unspecified) | – | 26% | Activity (Rattus norvegicus [1]): inactive |
| C/C=C/CC(O)(c1nc2cc(Cl)c(Cl)cc2[nH]1)C(F)(F)F (stereo unspecified) | 74 | 10% | – |
| CC#CC(O)(c1nc2cc(Cl)c(Cl)cc2[nH]1)C(F)(F)F (stereo unspecified) | 79 | inactive | – |
| C=C(C)CC(O)(c1nc2cc(Cl)c(Cl)cc2[nH]1)C(F)(F)F (stereo unspecified) | 59 | 17% | – |
| C/C=C/C(O)(c1nc2cc(Cl)c(Cl)cc2[nH]1)C(F)(F)F (stereo unspecified) | 61 | 23% | – |
| C=C(C)C(O)(c1nc2cc(Cl)c(Cl)cc2[nH]1)C(F)(F)F (stereo unspecified) | 127 | inactive | – |
| CCCC(O)(c1nc2cc(Cl)c(Cl)cc2[nH]1)C(F)(F)F (stereo unspecified) | 63 | 67% | – |
| CC(C)=CCC(O)(c1nc2cc(Cl)c(Cl)cc2[nH]1)C(F)(F)F (stereo unspecified) | 71 | inactive | – |
| FC(F)(F)C1(c2nc3cc(Cl)c(Cl)cc3[nH]2)C=CCN1 (stereo unspecified) | 57 | 8% | – |
